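Method: 48-hour compound exposure of cells in 96-well plates, five concentrations, linear interpolation of endpoints. At the GI50, growth is halved.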 Calls of active or inactive are those of the source. Rule as the data show it: active = GI50 up to about 1.1 µM and inactive = higher.
Columns and labels:
Assay in all cases: NCI tumour cell line growth inhibition, 48 h
786-0 = test system: 786-0
SN12C = test system: SN12C
OVCAR-5 = test system: OVCAR-5
A498 = test system: A498
OVCAR-8 = test system: OVCAR-8
HOP-92 = test system: HOP-92
HOP-62 = test system: HOP-62
M14 = test system: M14
SR = test system: SR
HCT-116 = test system: HCT-116
UO-31 = test system: UO-31
EKVX = test system: EKVX
SK-MEL-2 = test system: SK-MEL-2
CAKI-1 = test system: CAKI-1
UACC-257 = test system: UACC-257
SF-295 = test system: SF-295
RPMI-8226 = test system: RPMI-8226
IGROV-1 = test system: IGROV-1
NCI-H226 = test system: NCI-H226

Row | SMILES | GI50 (786-0) | GI50 (SN12C) | GI50 (OVCAR-5) | GI50 (A498) | GI50 (OVCAR-8) | GI50 (HOP-92) | GI50 (HOP-62) | GI50 (M14) | GI50 (SR) | GI50 (HCT-116) | GI50 (UO-31) | GI50 (EKVX) | GI50 (SK-MEL-2) | GI50 (CAKI-1) | GI50 (UACC-257) | GI50 (SF-295) | GI50 (RPMI-8226) | GI50 (IGROV-1) | GI50 (NCI-H226)
1 | CC(=O)OCC1OC(n2c(=O)[nH]c(=O)c3nn[nH]c32)C(OC(C)=O)C(OC(C)=O)C1OC(C)=O (configuration not stated) | > 100 µM (inactive) | > 100 µM (inactive) | > 100 µM (inactive) | > 100 µM (inactive) | > 100 µM (inactive) | > 100 µM (inactive) | > 100 µM (inactive) | > 100 µM (inactive) | > 100 µM (inactive) | > 100 µM (inactive) | > 100 µM (inactive) | > 100 µM (inactive) | > 100 µM (inactive) | > 100 µM (inactive) | > 100 µM (inactive) | > 100 µM (inactive) | > 100 µM (inactive) | > 100 µM (inactive) | 
2 | Cc1ccc(/C=C(\NC(=O)c2ccccc2)c2nc3ccccc3[nH]2)cc1 | 39.3 µM (inactive) | 61 µM (inactive) | > 100 µM (inactive) | 38 µM (inactive) | 43.8 µM (inactive) | 28.3 µM (inactive) | > 100 µM (inactive) | 50 µM (inactive) | 37.4 µM (inactive) | 37.2 µM (inactive) | 48.9 µM (inactive) | 74.5 µM (inactive) | 31.6 µM (inactive) |  | 35.3 µM (inactive) | 36.6 µM (inactive) |  | > 100 µM (inactive) | 
3 | CNC(=O)NCNC(=O)NC | > 100 µM (inactive) |  | > 100 µM (inactive) | > 100 µM (inactive) | > 100 µM (inactive) | > 100 µM (inactive) | > 100 µM (inactive) | > 100 µM (inactive) |  | > 100 µM (inactive) |  | > 100 µM (inactive) | > 100 µM (inactive) | > 100 µM (inactive) | > 100 µM (inactive) | > 100 µM (inactive) | > 100 µM (inactive) | > 100 µM (inactive) | 
4 | COc1cc2ccnc3c2c(c1OC)CC1CC(O)C(OC)CC31 (configuration not stated) | 33.5 µM (inactive) | 41.4 µM (inactive) | 37.5 µM (inactive) |  | 53.8 µM (inactive) | 14.7 µM (inactive) | 26.6 µM (inactive) | 51.8 µM (inactive) | 32 µM (inactive) | 38.7 µM (inactive) | 20.9 µM (inactive) | 22.8 µM (inactive) | > 100 µM (inactive) |  | 37.1 µM (inactive) | 36.6 µM (inactive) | 38.3 µM (inactive) | 66.4 µM (inactive) | 96.4 µM (inactive)
5 | Cc1nc(N)nc(N)c1CCCCc1ccc(N)cc1 | 0.728 µM (active) | 4.3 µM (inactive) | 4.46 µM (inactive) |  | 3.18 µM (inactive) | 3.93 µM (inactive) | 5.11 µM (inactive) | 2.58 µM (inactive) | 1.28 µM (inactive) | 0.569 µM (active) | 13.2 µM (inactive) | 9.23 µM (inactive) | 9.06 µM (inactive) | 9.66 µM (inactive) | 5.07 µM (inactive) | 1.94 µM (inactive) | 5.81 µM (inactive) | 3.35 µM (inactive) | 25.8 µM (inactive)
6 | O=C(c1ccco1)N(C(=S)N1CCN(c2ccccc2)CC1)c1ccccc1 | > 100 µM (inactive) | > 100 µM (inactive) | > 100 µM (inactive) |  | > 100 µM (inactive) | > 100 µM (inactive) | > 100 µM (inactive) | > 100 µM (inactive) | 72.4 µM (inactive) | > 100 µM (inactive) | 66.8 µM (inactive) |  | > 100 µM (inactive) | > 100 µM (inactive) | > 100 µM (inactive) | > 100 µM (inactive) | > 100 µM (inactive) | > 100 µM (inactive) | 25.6 µM (inactive)
7 | Cc1cc(N(CCC#N)CCC#N)ccc1/C=C1\N=C(c2cc([N+](=O)[O-])ccc2Cl)N(NC(=O)c2ccc(/N=C\c3ccc(N(CCC#N)S(C)(=O)=O)cc3C)cc2)C1=O | > 100 µM (inactive) | > 100 µM (inactive) | > 100 µM (inactive) | > 100 µM (inactive) | > 100 µM (inactive) | 98.9 µM (inactive) | 63.5 µM (inactive) | 37.9 µM (inactive) |  | > 100 µM (inactive) | > 100 µM (inactive) | > 100 µM (inactive) | > 100 µM (inactive) | > 100 µM (inactive) | 63.4 µM (inactive) |  | > 100 µM (inactive) | > 100 µM (inactive) | > 100 µM (inactive)
8 | CC1(C)O/C(=C\c2ccccc2)C(=O)/C(=C/c2ccccc2)O1 | 37.8 µM (inactive) | 47.6 µM (inactive) | 14.7 µM (inactive) | > 100 µM (inactive) | 45.2 µM (inactive) | 29.9 µM (inactive) | 74.8 µM (inactive) | 34.4 µM (inactive) | 20.5 µM (inactive) | 26.4 µM (inactive) | 19.1 µM (inactive) | 37.9 µM (inactive) | 18.4 µM (inactive) | 55.3 µM (inactive) | 22.5 µM (inactive) | 44.9 µM (inactive) | 16.3 µM (inactive) | 51.4 µM (inactive) | 17.7 µM (inactive)

Reference: ChEMBL document CHEMBL1201862, “PubChem BioAssay data set” (2004)
